According to patent publication US8637561B2, “Linked diimidazole derivatives” (Enanta Pharmaceuticals, Inc., priority 2009, dated 2014):

The molecules below were run on HCV 1b genotype replicon (assay: HCV replicon assay (qRT-PCR or luciferase), genotype 1b). Conditions: Hepatitis C virus, read-out: Genotype-1b replicon EC50 Range.
Assay type: cell-based
Source text: HCV replicon cell lines (kindly provided by R. Bartenschlager) isolated from colonies as described by Lohman et al. (Lohman et al. (1999) Science 285: 110-113, expressly incorporated by reference in its entirety) and used for all experiments. The HCV replicon has the nucleic acid sequence set forth in EMBL Accession No.: AJ242651, the coding sequence of which is from nucleotides 1801 to 8406.
The coding sequence of the published HCV replicon was synthesized and subsequently assembled in a modified plasmid pBR322 (Promega, Madison, Wis.) using standard molecular biology techniques. One replicon cell line (“SGR 11-7”) stably expresses HCV replicon RNA which consists of (i) the HCV 5′UTR fused to the first 12 amino acids of the capsid protein, (ii) the neomycin phosphotransferase gene (neo), (iii) the IRES from encephalomyocarditis virus (EMCV), and (iv) HCV NS2 to NS5B genes and the HCV 3′UTR. […]
EC50 values of single agent compounds and combinations were determined by HCV RNA detection using quantitative RT-PCR, according to the manufacturer's instructions, with a TaqMan® One-Step RT-PCR Master Mix Reagents Kit (Cat# AB 4309169, Applied Biosystems) on an ABI Model 7500 thermocycler. The TaqMan primers used for detecting and quantifying HCV RNA were obtained from Integrated DNA Technologies. HCV RNA was normalized to GAPDH RNA levels in drug-treated cells, which is detected and quantified using the Human GAPDH Endogenous Control Mix (Applied Biosystems, AB 4310884E). […] Chemical agent cytotoxicity is evaluated using an MTS assay according to the manufacturer's directions (Promega). […]
With `COC(=O)N[C@@H](C(=O)N1CCC[C@H]1c1ncc(CCc2ccc(-c3cnc([C@@H]4CCCN4C(=O)[C@H](NC(=O)OC)c4ccccc4)[nH]3)cc2)[nH]1)c1ccccc1` [Example 361] the EC50 was < 1 nM. For `COC(=O)N[C@@H](C(=O)N1CCC[C@H]1c1ncc(C#Cc2ccc(-c3cnc([C@@H]4CCCN4C(=O)[C@H](NC(=O)OC)c4ccccc4)[nH]3)cc2)[nH]1)c1ccccc1` [Example 299], the EC50 was < 1 nM. For `COC(=O)N[C@@H](C(=O)N1CCC[C@H]1c1nc(C2=CCC(c3ccc(-c4cnc([C@@H]5CCCN5C(=O)[C@H](NC(=O)OC)c5ccccc5)[nH]4)cc3)CC2)c[nH]1)c1ccccc1` (stereo partly drawn) [Example 1-b], the EC50 was < 1 nM.
